From patent publication US10792248B2, “Aqueous suspension preparation comprising nanoparticles of macrolide antibacterial agent” (ACTIVUS PHARMA CO., LTD., priority 2013, dated 2020)
In brackets after ≈: the same amount, converted by molar mass. Read-outs that look alike come from different tables or passages of the source.

Columns and labels:
[1] = rabbit, in vivo; cited from earlier work
[2] = system: nontuberculous mycobacteria; details: cited from earlier work
[3] = formulation with effective average diameter of less than 2000 nm combined with a surface stabilizer (Patent Literature 4); cited from earlier work
[4] = cited from earlier work
[5] = Stability test of nanoized clarithromycin suspension formulation, residual ratio by HPLC (Example 10); format: physicochemical; details: 5° C., 25° C. and 40° C., 14 days
Procedure: A quantity of 6 to 8 g of the nanoized clarithromycin suspension formulations (clarithromycin concentrations 0.3% and 1.0%) produced in Example 7 (1) were weighed in a 9 mL-screw vial, allowed to stand in thermo-hygrostats each set at 5° C., 25° C., and 40° C. to carry out the stability test over a period of 14 days. On days 7 and 14, the clarithromycin concentrations were determined by high performance liquid chromatography (HPLC), and the residual ratio was determined as compared to the clarithromycin concentration immediately after the formulation which was taken as 100% to evaluate the stability. The HPLC analysis conditions were as follows.
Apparatus: Waters alliance
Column: Inertsil ODS 4.6 mm×150 mm
Column temperature: 50° C.
Detection wavelength: 210 nm

[6] = system: Staphylococcus aureus subsp. aureus; test: Minimum inhibitory concentration (MIC) test, broth microdilution method; format: cell-based; details: 35±1° C., 18 to 24 hours, replicates
Procedure: (§1) An MIC test was conducted by applying the minimum inhibitory concentration (MIC) measurement method by the broth microdilution method (the standard method of Japanese Society of Chemotherapy). The clarithromycin suspension prepared in Example 6 (1) (test substance 1) was used as a test substance. An unpulverized clarithromycin suspension (test substance 2) and a clarithromycin solution in DMSO (test substance 3) were used as controls for comparisons.
(§2) Each of the test substances was stirred for 15 seconds or more using a vortex mixer before dilution. The clarithromycin-containing samples (test substances 1 to 3) were diluted with Mueller Hinton II broth to be a concentration of 250 μg/mL, and then two-fold diluted serially to prepare mediums containing the each sample at a final drug concentration of 0.012 to 25 μg/mL, which were used for inoculation of Staphylococcus aureus subsp. aureus. Similarly, the samples were diluted with Mueller Hinton II broth to a concentration of 1000 μg/mL, and then two-fold diluted serially to prepare mediums containing the each sample at a final drug concentration of 0.049 to 100 μg/mL, which were used for inoculating Pseudomonas aeruginosa.
(§3) To a U-shaped well microplate, 0.1±0.02 mL per well of the each prepared test substance-containing medium was dispensed. Drug-free medium was dispensed into two wells as a control.
(§4) Staphylococcus aureus subsp. aureus or Pseudomonas aeruginosa was cultured overnight in Mueller Hinton II agar medium. The fresh cultured bacterium on the agar plate was suspended in equivalent to 0.5 McFarand (about 10^8 CFU/mL) with sterilized saline and further diluted tenfold (about 10^7 CFU/mL) with sterilized saline to prepare a bacterium liquid.
(§5) To each of the wells to which the test substance-containing medium or the test substance-free medium was dispensed, 0.005 mL of the bacterium liquid of Staphylococcus aureus subsp. aureus or Pseudomonas aeruginosa prepared in the above (2-2) was inoculated (final amount of bacterium liquid: about 10^4 CFU/well). The bacterium liquid was not inoculated to a part of the wells with the test substance-free medium to prepare negative control wells. After inoculation, the media were cultured at 35±1° C. for 18 to 24 hours.
(§6) After confirming growth in the control wells containing the test substance-free media, the minimum inhibitory concentration (MIC) was determined as the minimum drug concentration in which the growth of bacterium was not detected with the naked eye. […] When turbidity or a precipitation was not observed with the naked eye, or when only one precipitation with the diameter of 1 mm or less was observed, the growth was determined negative (−).

Pseudomonas aeruginosa = test: as above; format: cell-based; details: 35±1° C., 18 to 24 hours, replicates
Procedure: as §1, §2, §3, §4, §5, §6

| Structure (SMILES) | retention in the cornea [1] | effectiveness against nontuberculous mycobacteria relative to azithromycin [2] | oral bioavailability [3] | solubility in acetone ([4]; acetone) | solubility in chloroform ([4]; chloroform) | solubility in ethanol ([4]; ethanol) | solubility in ether ([4]; ether) | solubility ([4]; formulation with effective average diameter of less than 2000 nm combined with a surface stabilizer (Patent Literature 4)) | solubility in methanol ([4]; methanol) | solubility ([4]; pulverized with L-ascorbic-acid 2-glycoside (Non Patent Literature 1)) | solubility in water ([4]; water) | stability (decomposition) in the suspension formulations [5] | MIC [6] | Minimum inhibitory concentration [6] | MIC (Pseudomonas aeruginosa) | Minimum inhibitory concentration (Pseudomonas aeruginosa) |
| --- | --- | --- | --- | --- | --- | --- | --- | --- | --- | --- | --- | --- | --- | --- | --- | --- |
| CC[C@H]1OC(=O)[C@H](C)[C@@H](O[C@H]2C[C@@](C)(OC)[C@@H](O)[C@H](C)O2)[C@H](C)[C@@H](O[C@@H]2O[C@H](C)C[C@H](N(C)C)[C@H]2O)[C@](C)(OC)C[C@@H](C)C(=O)[C@H](C)[C@@H](O)[C@]1(C)O [clarithromycin] | retained in the cornea | four to eight times as effective as azithromycin | higher oral bioavailability | slightly soluble | slightly soluble | very slightly soluble | very slightly soluble | higher solubility | very slightly soluble | enhanced solubility | practically insoluble | not decomposed but stable | – | – | – | – |
| CC[C@H]1OC(=O)[C@H](C)[C@@H](O[C@H]2C[C@@](C)(OC)[C@@H](O)[C@H](C)O2)[C@H](C)[C@@H](O[C@@H]2O[C@H](C)C[C@H](N(C)C)[C@H]2O)[C@](C)(OC)C[C@@H](C)C(=O)[C@H](C)[C@@H](O)[C@]1(C)O [Clarithromycin solution in DMSO, clarithromycin] | – | – | – | – | – | – | – | – | – | – | – | – | 0.391 µg/mL (≈ 0.523 µM) | 0.391 µg/mL (≈ 0.523 µM) | > 100 µg/mL | >100 µg/mL |
